Earlier results as cited in US11369597B2, “Methods for treating pancreatic cancer using combination therapies” (Ipsen Biopharm Ltd., priority 2012, dated 2022).
Read-outs that look alike come from different tables or passages of the source.

Key:
[1] = for incidence of grade 4 neutropenia: 350 mg/m^2 once every-3-weeks
[2] = system: advanced pancreatic cancer; conditions: first-line
[3] = system: advanced and metastatic pancreatic adenocarcinoma
[4] = metabolite formed by carboxylesterases

Structure (SMILES): CCc1c2c(nc3ccc(OC(=O)N4CCC(N5CCCCC5)CC4)cc13)-c1cc3c(c(=O)n1C2)COC(=O)[C@]3(O)CC [irinotecan, 7-ethyl-10-[4-(1-piperidino)-1-piperidino] carbonyloxycampothecin]
- incidence of grade 4 neutropenia ([1]; patients heterozygous (UGT1A1 6/7 genotype)): 12.5%
- incidence of grade 4 neutropenia ([1]; patients homozygous for the UGT1A1*28 allele): 50%
- grade 4 neutropenia ([1]; patients homozygous for the wild-type allele (UGT1A1 6/6 genotype)): no grade 4 neutropenia was observed

Structure (SMILES): Nc1ccn([C@@H]2O[C@H](CO)[C@@H](O)C2(F)F)c(=O)n1 [gemcitabine]
- 1-year survival rate [2]: 17%
- median survival [2]: 5.9 months
- median overall prolongation of survival ([3]; second line after 5-fluorouracil): 3.9 months
- 1-year survival rate ([3]; single-agent, first-line): about 20%

Structure (SMILES): CCc1c2c(nc3ccc(O)cc13)-c1cc3c(c(=O)n1C2)COC(=O)[C@]3(O)CC [SN-38]
- SN-38 more active than irinotecan [4]: 100-1000 fold
